# Data: patent US20240390429A1, “METHOD AND FORMULATION FOR TREATING RESPIRATORY DISEASES” (ENTEROBIOME INC., priority 2019, published 2024)
# Tested on: Akkermansia muciniphila ATCC BAA-835
# Test: MIC by broth microdilution (CLSI), type strain
# Type: cell-based
# Conditions: Akkermansia muciniphila, ATCCBAA835; test strain ATCC BAA-835, broth microdilution
row,Compound,MIC [µg/mL]
1,"O=C(N[C@H](CO)[C@H](O)c1ccc([N+](=O)[O-])cc1)C(Cl)Cl [CHL, chloramphenicol]",4
2,"CCC[C@@H]1C[C@@H](C(=O)N[C@@H]([C@H]2O[C@H](SC)[C@H](O)[C@@H](O)[C@H]2O)[C@H](C)Cl)N(C)C1 [CLI, clindamycin]",≤ 0.125
3,"CO/N=C(\C(=O)N[C@@H]1C(=O)N2C(C(=O)O)=CCS[C@H]12)c1csc(N)n1 [CTZ, ceftizoxime]",2
4,"C[C@@H](O)[C@H]1C(=O)N2C(C(=O)O)=C(S[C@@H]3CN[C@H](C(=O)N(C)C)C3)[C@H](C)[C@H]12 [MEM, meropenem]",1
5,"Cc1ncc([N+](=O)[O-])n1CCO [MTZ, metronidazole]",≤ 0.25
6,"COc1c(N2C[C@@H]3CCCN[C@@H]3C2)c(F)cc2c(=O)c(C(=O)O)cn(C3CC3)c12 [MXF, moxifloxacin]",> 32

# Same assay, conditions: test strain ATCC BAA-835; breakpoints per antibiotic in c1-c3
row,Compound,Susceptibility category by MIC breakpoints
1,"O=C(N[C@H](CO)[C@H](O)c1ccc([N+](=O)[O-])cc1)C(Cl)Cl [CHL, chloramphenicol]",(S)
2,"CCC[C@@H]1C[C@@H](C(=O)N[C@@H]([C@H]2O[C@H](SC)[C@H](O)[C@@H](O)[C@H]2O)[C@H](C)Cl)N(C)C1 [CLI, clindamycin]",(S)
3,"CO/N=C(\C(=O)N[C@@H]1C(=O)N2C(C(=O)O)=CCS[C@H]12)c1csc(N)n1 [CTZ, ceftizoxime]",(S)
4,"C[C@@H](O)[C@H]1C(=O)N2C(C(=O)O)=C(S[C@@H]3CN[C@H](C(=O)N(C)C)C3)[C@H](C)[C@H]12 [MEM, meropenem]",(S)
5,"Cc1ncc([N+](=O)[O-])n1CCO [MTZ, metronidazole]",(S)
6,"COc1c(N2C[C@@H]3CCCN[C@@H]3C2)c(F)cc2c(=O)c(C(=O)O)cn(C3CC3)c12 [MXF, moxifloxacin]",(R)
7,Piperacillin-tazobactam [PTZ],(S)

# Tested on: Bacteroides thetiotaomicron ATCC 29741
# Test: MIC by broth microdilution (CLSI), QC strain
# Type: cell-based
# Conditions: Bacteroides, ATCC29741
row,Compound,MIC [µg/mL]
1,"O=C(N[C@H](CO)[C@H](O)c1ccc([N+](=O)[O-])cc1)C(Cl)Cl [CHL, chloramphenicol]",8
2,"CO/N=C(\C(=O)N[C@@H]1C(=O)N2C(C(=O)O)=CCS[C@H]12)c1csc(N)n1 [CTZ, ceftizoxime]",16
3,"C[C@@H](O)[C@H]1C(=O)N2C(C(=O)O)=C(S[C@@H]3CN[C@H](C(=O)N(C)C)C3)[C@H](C)[C@H]12 [MEM, meropenem]",0.5
4,"Cc1ncc([N+](=O)[O-])n1CCO [MTZ, metronidazole]",2
5,"COc1c(N2C[C@@H]3CCCN[C@@H]3C2)c(F)cc2c(=O)c(C(=O)O)cn(C3CC3)c12 [MXF, moxifloxacin]",8

# Same assay, conditions: QC strain ATCC 29741, broth microdilution
row,Compound,MIC
1,Piperacillin-tazobactam [PTZ],8/4

# Tested on: Akkermansia muciniphila EB-AMDK19
# Test: MIC by broth microdilution (CLSI), isolated strain
# Type: cell-based
# Conditions: Akkermansia muciniphila, EBAMDK19; test strain EB-AMDK19, broth microdilution
row,Compound,MIC [µg/mL]
1,"O=C(N[C@H](CO)[C@H](O)c1ccc([N+](=O)[O-])cc1)C(Cl)Cl [CHL, chloramphenicol]",4
2,"CCC[C@@H]1C[C@@H](C(=O)N[C@@H]([C@H]2O[C@H](SC)[C@H](O)[C@@H](O)[C@H]2O)[C@H](C)Cl)N(C)C1 [CLI, clindamycin]",4
3,"CO/N=C(\C(=O)N[C@@H]1C(=O)N2C(C(=O)O)=CCS[C@H]12)c1csc(N)n1 [CTZ, ceftizoxime]",1
4,"C[C@@H](O)[C@H]1C(=O)N2C(C(=O)O)=C(S[C@@H]3CN[C@H](C(=O)N(C)C)C3)[C@H](C)[C@H]12 [MEM, meropenem]",0.5
5,"Cc1ncc([N+](=O)[O-])n1CCO [MTZ, metronidazole]",0.5
6,"COc1c(N2C[C@@H]3CCCN[C@@H]3C2)c(F)cc2c(=O)c(C(=O)O)cn(C3CC3)c12 [MXF, moxifloxacin]",> 32

# Same assay, conditions: test strain EB-AMDK19; breakpoints per antibiotic in c1-c3
row,Compound,Susceptibility category by MIC breakpoints
1,"O=C(N[C@H](CO)[C@H](O)c1ccc([N+](=O)[O-])cc1)C(Cl)Cl [CHL, chloramphenicol]",(S)
2,"CCC[C@@H]1C[C@@H](C(=O)N[C@@H]([C@H]2O[C@H](SC)[C@H](O)[C@@H](O)[C@H]2O)[C@H](C)Cl)N(C)C1 [CLI, clindamycin]",(I)
3,"CO/N=C(\C(=O)N[C@@H]1C(=O)N2C(C(=O)O)=CCS[C@H]12)c1csc(N)n1 [CTZ, ceftizoxime]",(S)
4,"C[C@@H](O)[C@H]1C(=O)N2C(C(=O)O)=C(S[C@@H]3CN[C@H](C(=O)N(C)C)C3)[C@H](C)[C@H]12 [MEM, meropenem]",(S)
5,"Cc1ncc([N+](=O)[O-])n1CCO [MTZ, metronidazole]",(S)
6,"COc1c(N2C[C@@H]3CCCN[C@@H]3C2)c(F)cc2c(=O)c(C(=O)O)cn(C3CC3)c12 [MXF, moxifloxacin]",(R)
7,Piperacillin-tazobactam [PTZ],(S)
